{"source": "ChEMBL document CHEMBL3785024", "about": "(Br J Clin Pharmacol, 2004)", "type_in_all_cases": "ADME, organism-based", "key": {"[1]": {"assay": "Cmax in healthy human subjects at 40 mg with water administered as single dose measured upto 24 hrs by LC-MS analysis", "parameters": "dose 40 mg", "conditions": "in vivo, oral"}, "[2]": {"assay": "Elimination half life in healthy human subjects at 40 mg with water administered as single dose measured upto 24 hrs by LC-MS analysis", "conditions": "in vivo, oral, read-out: beta t1/2 (converted)"}, "[3]": {"assay": "AUC (0 to 24 hrs) in healthy human subjects at 40 mg with water administered as single dose measured upto 24 hrs by LC-MS analysis", "parameters": "time < 24 hr, dose 40 mg", "conditions": "in vivo, oral"}, "Homo sapiens [4]": {"tested_on": "Homo sapiens", "assay": "Cmax in healthy human subjects assessed as simvastatin acid at 40 mg with water administered as single dose measured upto 24 hrs by LC-MS analysis", "parameters": "dose 40 mg", "conditions": "in vivo, po"}, "Homo sapiens [5]": {"tested_on": "Homo sapiens", "assay": "Elimination half life in healthy human subjects assessed as simvastatin acid at 40 mg with water administered as single dose measured upto 24 hrs by LC-MS analysis", "conditions": "in vivo"}, "Homo sapiens [6]": {"tested_on": "Homo sapiens", "assay": "AUC (0 to 24 hrs) in healthy human subjects assessed as simvastatin acid at 40 mg with water administered as single dose measured upto 24 hrs by LC-MS analysis", "parameters": "dose 40 mg, time < 24 hr", "conditions": "in vivo, po"}, "[7]": {"assay": "Cmax in healthy human subjects at 40 mg with 200 ml grape fruit juice drug administered as single dose on day 3 of grape fruit juice challenge measured upto 24 hrs by LC-MS analysis", "parameters": "dose 40 mg", "conditions": "in vivo, oral"}, "[8]": {"assay": "Elimination half life in healthy human subjects at 40 mg with 200 ml grape fruit juice drug administered as single dose on day 3 of grape fruit juice challenge measured upto 24 hrs by LC-MS analysis", "conditions": "in vivo, oral, read-out: beta t1/2 (converted)"}, "[9]": {"assay": "AUC (0 to 24 hrs) in healthy human subjects at 40 mg with 200 ml grape fruit juice drug administered as single dose on day 3 of grape fruit juice challenge measured upto 24 hrs by LC-MS analysis", "parameters": "dose 40 mg, time < 24 hr", "conditions": "in vivo, oral"}, "Homo sapiens [10]": {"tested_on": "Homo sapiens", "assay": "Cmax in healthy human subjects assessed as simvastatin acid at 40 mg with 200 ml grape fruit juice drug administered as single dose on day 3 of grape fruit juice challenge measured upto 24 hrs by LC-MS analysis", "parameters": "dose 40 mg", "conditions": "in vivo"}, "Homo sapiens [11]": {"tested_on": "Homo sapiens", "assay": "Elimination half life in healthy human subjects assessed as simvastatin acid at 40 mg with 200 ml grape fruit juice drug administered as single dose on day 3 of grape fruit juice challenge measured upto 24 hrs by LC-MS analysis", "conditions": "in vivo"}, "Homo sapiens [12]": {"tested_on": "Homo sapiens", "assay": "AUC (0 to 24 hrs) in healthy human subjects assessed as simvastatin acid at 40 mg with 200 ml grape fruit juice drug administered as single dose on day 3 of grape fruit juice challenge measured upto 24 hrs by LC-MS analysis", "parameters": "time < 24 hr, dose 40 mg", "conditions": "in vivo"}}, "data": [{"smiles": "CCC(C)(C)C(=O)O[C@H]1C[C@@H](C)C=C2C=C[C@H](C)[C@H](CC[C@@H]3C[C@@H](O)CC(=O)O3)[C@H]21", "note": "[SIMVASTATIN]", "values": [{"measurement": "Cmax", "setting": "[1]", "result": 7.3, "unit": "ng/mL"}, {"measurement": "half-life", "setting": "[2]", "result": 162, "unit": "min"}, {"measurement": "AUC(0-t) at 24 h", "setting": "[3]", "result": 31.6, "unit": "ng·h/mL"}, {"measurement": "Cmax", "setting": "Homo sapiens [4]", "result": 2.6, "unit": "ng/mL"}, {"measurement": "beta t1/2", "setting": "Homo sapiens [5]", "result": 2.9, "unit": "h"}, {"measurement": "AUC", "setting": "Homo sapiens [6]", "result": 18.5, "unit": "ng·h/mL"}, {"measurement": "Cmax", "setting": "[7]", "result": 28.5, "unit": "ng/mL"}, {"measurement": "half-life", "setting": "[8]", "result": 120, "unit": "min"}, {"measurement": "AUC(0-t) at 24 h", "setting": "[9]", "result": 112, "unit": "ng·h/mL"}, {"measurement": "Cmax", "setting": "Homo sapiens [10]", "result": 11.1, "unit": "ng/mL"}, {"measurement": "beta t1/2", "setting": "Homo sapiens [11]", "result": 2.4, "unit": "h"}, {"measurement": "AUC", "setting": "Homo sapiens [12]", "result": 62, "unit": "ng·h/mL"}]}]}
